Reference: patent publication US20070072242A1, “Immunoassay method and kit to leucomalachite green and malachite green” (Randox Laboratories Limited, priority 2005, published 2007)

Columns and labels:
[1] = tested on: Ig fraction of the antiserum raised to immunogen II (hapten A-BTG); experiment: competitive ELISA microtiter plate assay, antiserum to immunogen II with conjugate I (hapten A-HRP); assay type: binding, sheep; details: for % CR (percentage cross-reactivity based on specificity to leucomalachite green) / IC50 (standard concentration which produces 50% B/B0): Conjugate I (hapten A-HRP); for IC50 (standard concentration which produces 50% B/B0): 37° C. 2 hours; for % B/B0 / A450: Conjugate I
Experimental: (§1) An aqueous solution of immunogen II was formulated with Freund's Complete Adjuvant (FCA) to form an emulsion consisting of 2 mg/ml immunogen in 50% (v/v) FCA. Three sheep were immunised with this emulsion (1° immunisation), 0.25 ml being intramuscularly injected at each of four sites in the rump of each animal. Subsequent immunizations (boosts) contained 1 mg/ml immunogen. All boosts were emulsified in 50% (v/v) Freund's Incomplete Adjuvant (FIA) and were administered in the same manner as the 1° immunisation, at monthly intervals for 1 year. Blood sampling took place 7 to 14 days after each boost. Each sample was processed to produce antiserum, which was further purified by caprylic acid and ammonium sulfate precipitation to yield an immunoglobulin (Ig) fraction. The Ig fraction was evaluated by competitive ELISA microtiter plate assay, as described in Example 12 below.
(§2) The wells of an enhanced binding 96 well polystyrene microtiter plate were coated with the Ig fraction of the antiserum raised to immunogen II (hapten A-BTG) (Example 8), diluted in 10 mM Tris, pH8.5 (125 μl/well). The appropriate antibody coating dilution was determined using standard ELISA checkerboard techniques. The plate was incubated for 2 hours at 37° C., washed 4 times with Tris buffered saline containing Tween 20 (TBST) and tapped dry. Standard solutions of leucomalachite green and malachite green were prepared in TBST at 0, 5, 10, 50, 100, 250, 500 and 1000 ng/ml, and 50 μl of each was added to the appropriate wells (FIG. 8).
75 μl of conjugate I (hapten A-HRP) (Example 9), diluted in Tris buffer (pH 7.2) containing EDTA, D-mannitol, sucrose, thimerosal and BSA, was added to each of the wells, as shown in FIG. 8. The appropriate dilution of conjugate was also determined using standard ELISA checkerboard techniques. The plate was incubated at 37° C. for 2 hours. Excess unbound conjugate was removed by washing 6 times over a 10 minute period with TBST. 125 μl of tetramethylbenzidine (TMB) substrate solution was added to each well of the plate that was then incubated for 15 to 20 minutes in the dark at room temperature. The reaction was terminated by addition of 125 μl 0.2M H2SO4 to each well. The absorbance was then measured at 450 nm using a microtiter plate reader.

[2] = tested on: Ig fraction of the antiserum raised to immunogen II (hapten A-BTG); experiment: competitive ELISA microtiter plate assay, antiserum to immunogen II with Conjugate II (hapten C-HRP); assay type: binding, sheep; details: for % CR (percentage cross-reactivity based on specificity to leucomalachite green) / IC50 (standard concentration which produces 50% B/B0): Conjugate II (hapten C-HRP); for IC50 (standard concentration which produces 50% B/B0): 25° C. 1 hour; for % B/B0 / A450: Conjugate II
Experimental: as §1
as §2, with “Standard solutions of leucomalachite green and malachite green were prepared in TBST at 0, 5, 10, 50, 100, 250, 500 and 1000 ng/ml, and 50 μl of each was added to the appropriate wells (FIG. 8).” left out
75 μl of conjugate C (hapten C-HRP) (Example 10), diluted in Tris buffer (pH 7.2) containing EDTA, D-mannitol, sucrose, thimerosal and BSA, was added to each of the wells, as shown in FIG. 8. The appropriate dilution of conjugate was also determined using standard ELISA checkerboard techniques.
The plate was incubated at 25° C. for 1 hour. Excess unbound conjugate was removed by washing 6 times over a 10-15 minute period with TBST.
125 μl of tetramethylbenzidine (TMB) substrate solution was added to each well of the plate that was then incubated for 20 minutes in the dark at room temperature. The reaction was terminated by addition of 100 ul 0.2 M H2SO4 to each well. The absorbance was then measured at 450 nm using a microtiter plate reader.

Bioo Kit antibodies = details: information provided by Bioo Scientific; kit designed to detect malachite green only; cited from earlier work
[3] = standard concentration 10 ng/ml
[4] = standard concentration 50 ng/ml
[5] = standard concentration 100 ng/ml
[6] = standard concentration 250 ng/ml
[7] = standard concentration 500 ng/ml
[8] = standard concentration 1000 ng/ml
[9] = standard concentration 0.5 ng/ml

| SMILES | % CR (percentage cross-reactivity based on specificity to leucomalachite green) [1] [%] | IC50 (standard concentration which produces 50% B/B0) [1] [µg/mL] | % B/B0 ([1]; standard concentration 5 ng/ml) [%] | A450 ([1]; standard concentration 5 ng/ml) | % B/B0 [1, 3] [%] | A450 [1, 3] | % B/B0 [1, 4] [%] | A450 [1, 4] | % B/B0 [1, 5] [%] | A450 [1, 5] | % B/B0 [1, 6] [%] | A450 [1, 6] | % B/B0 [1, 7] [%] | A450 [1, 7] | % B/B0 [1, 8] [%] | A450 [1, 8] | % CR (percentage cross-reactivity based on specificity to leucomalachite green) [2] [%] | IC50 (standard concentration which produces 50% B/B0) [2] [µg/mL] | % B/B0 [2, 9] [%] | A450 [2, 9] | also measured |
| --- | --- | --- | --- | --- | --- | --- | --- | --- | --- | --- | --- | --- | --- | --- | --- | --- | --- | --- | --- | --- | --- |
| CN(C)c1ccc(C(=C2C=CC(=[N+](C)C)C=C2)c2ccccc2)cc1 [Malachite Green, malachite green] | 26.43 | 0.10339 | 85.2 | 1.440 | 82.3 | 1.392 | 63.6 | 1.075 | 51.4 | 0.869 | 39.3 | 0.664 | 30.8 | 0.520 | 24.6 | 0.416 | 26.8 | 0.013962 | 95 | 1.611 | % B/B0 ([2]; standard concentration 1 ng/ml): 89%; A450 ([2]; standard concentration 1 ng/ml): 1.504; % B/B0 ([2]; standard concentration 5 ng/ml): 67%; A450 ([2]; standard concentration 5 ng/ml): 1.137; % B/B0 [2, 3]: 57%; A450 [2, 3]: 0.967; % B/B0 [2, 4]: 29%; A450 [2, 4]: 0.497; % B/B0 [2, 5]: 20%; A450 [2, 5]: 0.342; % B/B0 [2, 6]: 13%; A450 [2, 6]: 0.227; % B/B0 [2, 7]: 11%; A450 [2, 7]: 0.184; % B/B0 [2, 8]: 7%; A450 [2, 8]: 0.113 |
| CN(C)c1ccc(C(c2ccccc2)c2ccc(N(C)C)cc2)cc1 [Leucomalachite Green, leucomalachite green] | 100 | 0.02733 | 76.0 | 1.378 | 67.5 | 1.225 | 42.0 | 0.762 | 30.2 | 0.547 | 20.2 | 0.366 | 13.6 | 0.247 | 9.8 | 0.178 | 100 | 0.00374 | 90 | 1.550 | % B/B0 ([2]; standard concentration 1 ng/ml): 77%; A450 ([2]; standard concentration 1 ng/ml): 1.323; % B/B0 ([2]; standard concentration 5 ng/ml): 45%; A450 ([2]; standard concentration 5 ng/ml): 0.772; % B/B0 [2, 3]: 31%; A450 [2, 3]: 0.538; % B/B0 [2, 4]: 11%; A450 [2, 4]: 0.184; cross-reactivity (Bioo Kit antibodies): 1% |
